{"source": "patent US20120328526A1", "about": "“Modulation of Nad+ Activity in Neuropathophysiological Conditions and Uses Thereof” (University of Maryland, Baltimore, priority 2011, published 2012)", "type_in_all_cases": "in vivo, mouse", "key": {"[1]": {"tested_on": "tissue NAD(H) levels", "assay": "Tissue NAD(H) levels in post-ischemic brain regions (enzymatic cycling assay)", "details": "10 min forebrain ischemia, NMN intraperitoneally at 1 h of reperfusion, measured at 24 h of recovery", "experimental": "FIGS. 3A-3B show the effect of forebrain ischemia and nicotinamide mononucleotide administration on tissue NAD(H) levels. Mice were subjected to 10 min transient forebrain ischemia and allowed to recover for 24 h. After decapitation their brains were removed, the designated regions dissected and frozen in liquid nitrogen. One group of animals received nicotinamide mononucleotide at 1 hour of recovery. The NAD content was determined following perchloric acid extraction and utilized a coupled fluorometric cycling enzymatic assay (FIG. 3A). There is significant loss of NAD^+ in striatum, CA1, and DG regions. *p<0.05. […] Black: sham; white: ischemia; gray: NMN treatment. FIG. 3B: Effect of ischemia on CD38 activity. […] The CD38 enzyme activity was determined using 1-etheno-NAD that, when hydrolyzed by CD38, generates a fluorescent product. The rate of fluorescence increase corresponds to the CD38 enzyme activity. […]\nThe tissue NAD(H) levels were determined utilizing an enzymatic cycling assay. […] The parietal cortex, striatum, the CA1 sector and CA3-DG regions of the hippocampus were dissected and the tissue NAD(H) levels were determined following perchloric acid extraction. […] Nicotinamide mononucleotide was administrated intraperitoneally at 1 h of reperfusion and the tissue NAD(H) content was determined at 24 h of recovery."}, "[2]": {"assay": "Core temperature and blood pressure after nicotinamide mononucleotide administration in post-ischemic animals", "source_text": "For quantification of uninjured cells within the CA1 sector of the hippocampus an unbiased stereological technique was used (27). […] This is in accord with the degree of hippocampal injury reported in other models of mouse forebrain ischemia. There were no seizure incidents during the first hours of recovery however there was about 10% mortality in the 5 days recovery group. […] To exclude the possibility that the protection was due to hypothermia, the treated animals' core temperature was monitored for 1 h after the nicotinamide mononucleotide administration. The body temperature was stable at 37.5° C. Similarly there was no effect of nicotinamide mononucleotide administration on the animals' blood pressure that was maintained between 80 and 100 mmHg after the compound injection."}, "[3]": {"tested_on": "C57Bl/6 mice subjected to moderate-level traumatic brain injury", "assay": "Beam walk test after controlled cortical impact traumatic brain injury", "details": "NMN 500 mg/kg I.P. at 1 hour post-injury, 7 days post-injury, p<0.001", "experimental": "FIGS. 9A-9B show traumatic brain injury-induced deficits in sensorimotor function and cognition are ameliorated by nicotinamide mononucleotide treatment. FIG. 9A: Fine motor coordination deficits were quantified using a beam walk test in C57Bl/6 mice subjected to moderate-level traumatic brain injury and treated with nicotinamide mononucleotide (500 mg/kg, I.P.) or equal volume of vehicle at 1 hour post-injury. Hindlimb foot placement was recorded up to 7 days post-injury and the number of foot faults recorded from 50 steps. Naïve C57Bl/6 mice served as a control group. […] Analysis was by repeated measures one-way ANOVA, followed by post-hoc adjustments using Student-Newman-Keuls test. Mean ±S.E.M.; n=5/group. FIG. 9B: Cognitive performance was analyzed by measuring the number of anti-clockwise and clockwise rotations of traumatic brain injury mice in an open field test performed at 7 days post-injury.\nIn a clinically relevant model of traumatic brain injury, controlled cortical impact (CCI) (Fox et al. 1998), was induced in C57Bl/6 mice and these animals were followed for up to 1 year post-injury to assess post-traumatic tissue loss and neurodegeneration. […] One group was evaluated for changes between 24 h and 3 months post-injury; a second group was used to compare changes in TBI-induced lesion volume between 6 and 12 months. […]"}}, "note": "“Also recorded” adds a separate entry of the source.", "data": [{"smiles": "NC(=O)c1ccc[n+]([C@@H]2O[C@H](COP(=O)([O-])O)[C@@H](O)[C@H]2O)c1", "note": "[nicotinamide mononucleotide]", "values": [{"measurement": "post-ischemic brain tissue NAD(H) levels", "setting": "[1]", "result": "reversed; also recorded: complete recovery of brain tissue NAD(H) levels"}, {"measurement": "post-ischemic brain tissue NAD(H) levels", "setting": "[1]; listed as NMN", "result": "prevented the post-ischemic NAD catabolism"}, {"measurement": "effect on animals' blood pressure", "setting": "[2]; after the compound injection (500 mg/kg)", "result": "no effect"}, {"measurement": "body (core) temperature after administration", "setting": "[2]; monitored for 1 h after NMN administration (500 mg/kg)", "result": 37.5, "unit": "°C"}, {"measurement": "fine motor coordination (beam walk foot faults) vs vehicle-treated TBI mice", "setting": "[3]", "result": "significant improvement in motor performance"}, {"measurement": "fine motor coordination (beam walk foot faults) vs vehicle-treated TBI mice", "setting": "[3]; listed as NMN", "result": "significantly reduced deficits in fine motor coordination"}]}]}
